From the supplement of paper PMC8671470

Tests used:
Settings in all cases: 72 h
SHI-1 [1] = experiment: cell viability (% survival relative to DMSO control, bortezomib = 0%); higher = less cytotoxic
How it was run: (§1)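 Reported values are percent survival from duplicate wells, averaged. Fifteen myeloid leukaemia cell lines were treated in 384-well plates with compounds at 1, 10, 100, 1000 or 10000 nM for 72 h at 37 °C in 5% CO2. Signals from CellTiter-Glo luminescence were scaled with vehicle as 100% and a 10 µM positive control as 0%.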

KCL-22 [2] = experiment: as above
How it was run: as §1

MOLM-13 [3] = experiment: as above
How it was run: as §1

KU-812 [4] = experiment: as above
How it was run: as §1

HL-60 [5] = experiment: as above
How it was run: as §1

BV-173 [6] = experiment: as above
How it was run: as §1

MV4-11 [7] = experiment: as above
How it was run: as §1

NOMO-1 [8] = experiment: as above
How it was run: as §1

ML-2 [9] = experiment: as above
How it was run: as §1

KG-1 [10] = experiment: as above
How it was run: as §1

LAMA-84 [11] = experiment: as above
How it was run: as §1

HEL [12] = experiment: as above
How it was run: as §1

K-562 [13] = experiment: as above
How it was run: as §1

Mono-Mac-6 [14] = experiment: as above
How it was run: as §1

THP-1 [15] = experiment: as above
How it was run: as §1

SHI-1 [16] = tested on: SHI-1
How it was run: (§2)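 Dose–response data were fitted with a four-parameter log-logistic model. They came from fifteen myeloid leukaemia lines treated in duplicate with five tenfold doses from 1 to 10,000 nM for 72 h at 37 °C with 5% CO2, with ATP viability normalised to vehicle and to a positive control at 10 µM. The IC50 was derived from these fits.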

KCL-22 [17] = tested on: KCL-22
How it was run: as §2

MOLM-13 [18] = tested on: MOLM-13
How it was run: as §2

KU-812 [19] = tested on: KU-812
How it was run: as §2

HL-60 [20] = tested on: HL-60
How it was run: as §2

BV-173 [21] = tested on: BV-173
How it was run: as §2

MV4-11 [22] = tested on: MV4-11
How it was run: as §2

NOMO-1 [23] = tested on: NOMO-1
How it was run: as §2

ML-2 [24] = tested on: ML-2
How it was run: as §2

KG-1 [25] = tested on: KG-1
How it was run: as §2

LAMA-84 [26] = tested on: LAMA-84
How it was run: as §2

HEL [27] = tested on: HEL
How it was run: as §2

K-562 [28] = tested on: K-562
How it was run: as §2

Mono-Mac-6 [29] = tested on: Mono-Mac-6
How it was run: as §2

THP-1 [30] = tested on: THP-1
How it was run: as §2

CC1Cc2ccccc2N1NC(=O)c1ccc(Cl)c(S(N)(=O)=O)c1 (stereo not given) [Indapamide]
cell viability [%]
Settings	1 nM	10 nM	100 nM	1000 nM	10000 nM
BV-173 [6]	116	93.9	95.3	99.7	91.9
HEL [12]	107	112	101	105	103
HL-60 [5]	87.7	95	81.6	93	102
K-562 [13]	112	97.3	120	100	102
KCL-22 [2]	89.3	105	77.6	102	105
KG-1 [10]	86.7	105	101	97.3	101
KU-812 [4]	89.8	111	95.8	104	89.7
LAMA-84 [11]	92.2	111	98.1	94.3	91.3
ML-2 [9]	94.1	98.2	97.5	93.8	100
MOLM-13 [3]	100	93.3	96.5	100	86.1
MV4-11 [7]	111	98.4	102	97.8	99.4
Mono-Mac-6 [14]	99.6	112	112	110	90.9
NOMO-1 [8]	98.2	103	101	101	102
SHI-1 [1]	92.5	93.8	113	102	98
THP-1 [15]	93.5	105	93.2	95.4	97

Settings	IC50 (cell viability) [µM]
BV-173 [21]	> 10
HEL [27]	> 10
HL-60 [20]	> 10
K-562 [28]	> 10
KCL-22 [17]	> 10
KG-1 [25]	> 10
KU-812 [19]	> 10
LAMA-84 [26]	> 10
ML-2 [24]	> 10
MOLM-13 [18]	> 10
MV4-11 [22]	> 10
Mono-Mac-6 [29]	> 10
NOMO-1 [23]	> 10
SHI-1 [16]	> 10
THP-1 [30]	> 10

O[C@H]1[C@H](O)[C@@H](O)CN2CC[C@H](O)[C@H]12 [Castanospermine]
cell viability [%]
Settings	1 nM	10 nM	100 nM	1000 nM	10000 nM
BV-173 [6]	123	105	95.9	82.4	88.4
HEL [12]	113	109	105	126	112
HL-60 [5]	94.2	90.7	114	132	143
K-562 [13]	95.1	107	96.5	92.2	106
KCL-22 [2]	99	98	112	125	94.9
KG-1 [10]	120	98.4	116	99.4	104
KU-812 [4]	96.7	93.5	105	100	94.6
LAMA-84 [11]	93	97.5	103	95.8	101
ML-2 [9]	115	107	103	96	94.1
MOLM-13 [3]	79.9	90.7	108	123	117
MV4-11 [7]	102	106	97	95.5	107
Mono-Mac-6 [14]	100	97.3	105	95.1	97.6
NOMO-1 [8]	105	111	105	105	86.7
SHI-1 [1]	106	98	108	125	112
THP-1 [15]	91.9	105	101	96.9	98.8

Settings	IC50 (cell viability) [µM]
BV-173 [21]	> 10
HEL [27]	> 10
HL-60 [20]	> 10
K-562 [28]	> 10
KCL-22 [17]	> 10
KG-1 [25]	> 10
KU-812 [19]	> 10
LAMA-84 [26]	> 10
ML-2 [24]	> 10
MOLM-13 [18]	> 10
MV4-11 [22]	> 10
Mono-Mac-6 [29]	> 10
NOMO-1 [23]	> 10
SHI-1 [16]	> 10
THP-1 [30]	> 10

Cc1[nH]n(-c2ccccc2)c(=O)c1C1(C(F)(F)F)C(=O)N(c2ccccc2)C2=C1C(=O)CC(C)(C)C2 (stereo not given)
cell viability [%]
Settings	1 nM	10 nM	100 nM	1000 nM	10000 nM
BV-173 [6]	103	89.2	128	99.8	111
HEL [12]	94.3	104	108	90.8	90.9
HL-60 [5]	121	120	104	77.6	103
K-562 [13]	89.6	100	103	108	97.3
KCL-22 [2]	84.5	140	99.2	108	103
KG-1 [10]	96.7	97.6	97.8	93.7	107
KU-812 [4]	104	94.3	97.7	111	95.3
LAMA-84 [11]	106	92.6	99.9	110	92.4
ML-2 [9]	98.6	87.9	115	101	99.8
MOLM-13 [3]	91.4	114	98.5	100	99.8
MV4-11 [7]	105	104	99.4	97.1	96.4
Mono-Mac-6 [14]	115	98.1	105	97.1	101
NOMO-1 [8]	104	94.6	108	101	101
SHI-1 [1]	101	109	109	108	104
THP-1 [15]	101	97.5	93.8	93.2	92

Settings	IC50 (cell viability) [µM]
BV-173 [21]	> 10
HEL [27]	> 10
HL-60 [20]	> 10
K-562 [28]	> 10
KCL-22 [17]	> 10
KG-1 [25]	> 10
KU-812 [19]	> 10
LAMA-84 [26]	> 10
ML-2 [24]	> 10
MOLM-13 [18]	> 10
MV4-11 [22]	> 10
Mono-Mac-6 [29]	> 10
NOMO-1 [23]	> 10
SHI-1 [16]	> 10
THP-1 [30]	> 10

Fc1ccc(CNc2ncnc3ccc(F)cc23)cc1 [Spautin 1]
cell viability [%]
Settings	1 nM	10 nM	100 nM	1000 nM	10000 nM
BV-173 [6]	98.3	96.8	110	79.7	35.1
HEL [12]	91.3	98.3	94.1	89.4	47.9
HL-60 [5]	105	102	110	117	47.4
K-562 [13]	103	97	100	69.8	16.9
KCL-22 [2]	112	113	108	88.6	61.9
KG-1 [10]	108	98.5	103	66.8	32.6
KU-812 [4]	96.8	96.3	94.5	62.3	12.6
LAMA-84 [11]	103	103	93.5	66.4	26.7
ML-2 [9]	108	84.7	97	87.9	63.2
MOLM-13 [3]	93.1	89.7	122	108	50.9
MV4-11 [7]	98.8	92.4	102	64.7	33
Mono-Mac-6 [14]	109	96.1	119	106	59
NOMO-1 [8]	103	102	110	97.3	77.1
SHI-1 [1]	113	100	106	95.9	62.2
THP-1 [15]	95.5	103	103	106	79.1

Settings	IC50 (cell viability) [µM]
BV-173 [21]	2.75
HEL [27]	9.11
HL-60 [20]	9.64
K-562 [28]	1.34
KCL-22 [17]	> 10
KG-1 [25]	1.57
KU-812 [19]	1.39
LAMA-84 [26]	1.49
ML-2 [24]	> 10
MOLM-13 [18]	> 10
MV4-11 [22]	1.52
Mono-Mac-6 [29]	> 10
NOMO-1 [23]	> 10
SHI-1 [16]	> 10
THP-1 [30]	> 10

CCCCCCCNC=O [N-Heptyl-Formamide]
cell viability [%]
Settings	1 nM	10 nM	100 nM	1000 nM	10000 nM
BV-173 [6]	112	98.3	90.4	123	95.5
HEL [12]	109	97.9	80.9	112	92.1
HL-60 [5]	108	115	95.3	143	91.7
K-562 [13]	116	108	99	122	96.3
KCL-22 [2]	101	109	90.1	113	98.8
KG-1 [10]	99.6	110	86.4	108	95.5
KU-812 [4]	108	97.3	98.9	107	91.7
LAMA-84 [11]	101	99.3	104	112	98.1
ML-2 [9]	121	106	88.8	117	90.9
MOLM-13 [3]	113	98.3	89.9	108	90.3
MV4-11 [7]	106	105	93.7	105	94.4
Mono-Mac-6 [14]	110	97.3	101	114	96.8
NOMO-1 [8]	110	96.7	100	113	93
SHI-1 [1]	109	104	101	114	97.1
THP-1 [15]	110	97.1	97.1	104	96.7

Settings	IC50 (cell viability) [µM]
BV-173 [21]	> 10
HEL [27]	> 10
HL-60 [20]	> 10
K-562 [28]	> 10
KCL-22 [17]	> 10
KG-1 [25]	> 10
KU-812 [19]	> 10
LAMA-84 [26]	> 10
ML-2 [24]	> 10
MOLM-13 [18]	> 10
MV4-11 [22]	> 10
Mono-Mac-6 [29]	> 10
NOMO-1 [23]	> 10
SHI-1 [16]	> 10
THP-1 [30]	> 10
